Laboratory results published in patent US5532267A, “Amidinonaphthyl furancarboxylate derivatives and acid addition salts therof” (Torii & Co., Ltd., priority 1992, dated 1996).

What was measured:
[1] = target: T1, trypsin (Bos taurus, UniProt P00760); assay: anti-trypsin activity, hydrolysis of TAME (tosylarginine methyl ester); type: biochemical; conditions: hydrolysis of TAME; read-out: Try: molar concentration inhibiting 50% of enzyme activity (IC50)
T1 sequence (P00760 24-246): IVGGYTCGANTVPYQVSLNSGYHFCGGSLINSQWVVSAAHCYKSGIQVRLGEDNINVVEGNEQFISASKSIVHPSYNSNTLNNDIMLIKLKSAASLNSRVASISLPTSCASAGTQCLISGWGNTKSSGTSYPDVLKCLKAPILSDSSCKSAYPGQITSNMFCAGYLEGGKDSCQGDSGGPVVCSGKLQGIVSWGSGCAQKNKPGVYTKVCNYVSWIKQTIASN

[2] = target: plasmin (Homo sapiens, UniProt P00747); assay: anti-plasmin activity, hydrolysis of TAME (tosylarginine methyl ester); type: biochemical; conditions: hydrolysis of TAME; read-out: Pla: molar concentration inhibiting 50% of enzyme activity (IC50)
Procedure: (§1) The values in Table 1 represent molar concentrations (IC50) of test compounds which inhibit 50% of the activity of each enzyme to hydrolyze TAME (tosylarginine methyl ester). The anti-trypsin, anti-plasmin, anti-kallikrein and anti-thrombin activities were determined according to the method of Muramatsu et al. (J. Biochem. (1965), volume 58, page 214).

[3] = target: T2, C1r (Homo sapiens, UniProt P00736); assay: anti-complement (anti-C1 esterase) activity, C1r hydrolysis of AAME (acetyl-arginine methyl ester); type: biochemical; conditions: hydrolysis of AAME; read-out: Clr: molar concentration inhibiting 50% of C1r activity (IC50)
T2 sequence (P00736 18-705): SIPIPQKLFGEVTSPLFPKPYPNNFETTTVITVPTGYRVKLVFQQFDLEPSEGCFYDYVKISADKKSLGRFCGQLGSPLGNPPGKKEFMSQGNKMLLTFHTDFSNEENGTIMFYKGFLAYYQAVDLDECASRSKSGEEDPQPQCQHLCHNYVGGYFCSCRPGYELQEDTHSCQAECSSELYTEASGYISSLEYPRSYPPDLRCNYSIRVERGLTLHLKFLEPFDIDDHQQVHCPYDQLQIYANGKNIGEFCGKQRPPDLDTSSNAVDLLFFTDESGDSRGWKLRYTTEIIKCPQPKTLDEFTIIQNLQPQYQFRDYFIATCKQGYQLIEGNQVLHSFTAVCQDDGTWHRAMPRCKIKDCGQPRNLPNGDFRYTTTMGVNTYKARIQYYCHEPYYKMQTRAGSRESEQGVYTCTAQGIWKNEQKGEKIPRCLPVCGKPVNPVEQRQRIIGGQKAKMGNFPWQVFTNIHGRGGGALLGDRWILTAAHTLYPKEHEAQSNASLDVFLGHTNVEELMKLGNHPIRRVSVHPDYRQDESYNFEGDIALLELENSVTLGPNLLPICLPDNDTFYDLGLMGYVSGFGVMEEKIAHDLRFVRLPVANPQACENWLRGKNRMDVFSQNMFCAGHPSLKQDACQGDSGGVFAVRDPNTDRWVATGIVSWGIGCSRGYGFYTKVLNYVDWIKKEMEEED

[4] = target: T3, C1s (Homo sapiens, UniProt P09871); assay: anti-complement (anti-C1 esterase) activity, C1s hydrolysis of ATEE (acetyltyrosine ethyl ester); type: biochemical; conditions: hydrolysis of ATEE; read-out: Cls: molar concentration inhibiting 50% of C1s activity (IC50)
T3 sequence (P09871 16-688): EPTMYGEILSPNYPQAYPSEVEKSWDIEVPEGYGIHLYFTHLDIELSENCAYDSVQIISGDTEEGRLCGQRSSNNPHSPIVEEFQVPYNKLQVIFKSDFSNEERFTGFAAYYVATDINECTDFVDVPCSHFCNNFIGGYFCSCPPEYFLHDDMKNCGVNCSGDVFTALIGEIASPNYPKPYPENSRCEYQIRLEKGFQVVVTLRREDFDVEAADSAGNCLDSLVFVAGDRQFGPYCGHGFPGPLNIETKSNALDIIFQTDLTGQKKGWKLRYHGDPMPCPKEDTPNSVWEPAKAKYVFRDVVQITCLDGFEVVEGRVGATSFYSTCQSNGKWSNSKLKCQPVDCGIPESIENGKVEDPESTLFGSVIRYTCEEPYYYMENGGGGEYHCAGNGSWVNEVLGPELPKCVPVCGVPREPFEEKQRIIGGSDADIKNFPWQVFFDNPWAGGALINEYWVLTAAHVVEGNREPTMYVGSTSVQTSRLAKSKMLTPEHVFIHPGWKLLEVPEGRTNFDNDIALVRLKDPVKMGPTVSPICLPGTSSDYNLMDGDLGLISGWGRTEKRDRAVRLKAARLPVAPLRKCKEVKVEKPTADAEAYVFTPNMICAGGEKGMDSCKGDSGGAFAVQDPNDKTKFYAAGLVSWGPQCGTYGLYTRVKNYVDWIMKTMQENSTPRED
Procedure: The anti-C1 esterase (C1r, C1s) activity was determined according to the method of Okamura et al. (Biochem. Biophys. Acta (1973), volume 295, pages 252-257). […] The values for C1s represent molar concentrations (IC50) of test compounds which inhibit 50% of the activity of C1s to hydrolyze ATEE (acetyltyrosine ethyl ester).

[5] = system: kallikrein; assay: anti-kallikrein activity, hydrolysis of TAME (tosylarginine methyl ester); type: biochemical; conditions: hydrolysis of TAME; read-out: Kal: molar concentration inhibiting 50% of enzyme activity (IC50)
Procedure: as §1

[6] = target: thrombin (Homo sapiens, UniProt P00734); assay: anti-thrombin activity, hydrolysis of TAME (tosylarginine methyl ester); type: biochemical; conditions: hydrolysis of TAME; read-out: Thr: molar concentration inhibiting 50% of enzyme activity (IC50)
Procedure: as §1

[7] = system: adjuvant arthritis; assay: Effectiveness in treating adjuvant arthritis (Mycobacterium butyricum); type: in vivo, rat; conditions: 60 mg/kg, oral, day -1 to day 13
Procedure: Adjuvant arthritis is known as a representative model of autoimmune diseases and is a effective means of testing agents to treat human rheumatoid arthritis (Encyclopedia of Immunology, edited by I. M. Roitt, Academic Press, 1992; Otterness, I. G., et al., J. of Rheumatology (1991), volume 18, pages 505-511),
The method of experiment was as follows. A 0.6% Mycobacterium butyricum liquid paraffin suspension, 0.1 ml/animal, was administered to a rat at a subcutaneous site of left hind-limb sole to induce adjuvant arthritis. The present compound was orally administered (in the form of a suspension in water) consecutively from 1 day before the induction to 13 days after the induction. The efficacy of the present compound on adjuvant arthritis was evaluated by examining the swelling accompanied by red spots and subcutaneous knots at the fore-limb, hind-limb, tail, ear and periphery of eye with the lapse of days (on the 8th, 10th, 12th, 14th, 16th and 18th days after adjuvant administration), expressing the results in terms of scores according to the method of F. D. Wood et al. (Int. Arch. Allergy (1969), volume 35, pages 456-467), and calculating the percentage inhibition relative to the control group. Thus, the higher value of percentage inhibition indicates the higher effectiveness.

[8] = system: Masugi's nephritis; assay: Effectiveness in treating Masugi's nephritis (experimental glomerulonephritis), protein in urine; type: in vivo, rat; conditions: 10 mg/kg, oral; mean ± standard deviation, 7 animals; control group 40.8 ± 15.1
Procedure: […] […] As the index to effectiveness, the protein concentration in urine was determined. That is, when inflammation develops in the kidney, it causes damage to renal tubules, etc., and a resultant increase in protein concentration in urine.

Chain of plasmin (P00747 581-810 limits assumed, species assumed): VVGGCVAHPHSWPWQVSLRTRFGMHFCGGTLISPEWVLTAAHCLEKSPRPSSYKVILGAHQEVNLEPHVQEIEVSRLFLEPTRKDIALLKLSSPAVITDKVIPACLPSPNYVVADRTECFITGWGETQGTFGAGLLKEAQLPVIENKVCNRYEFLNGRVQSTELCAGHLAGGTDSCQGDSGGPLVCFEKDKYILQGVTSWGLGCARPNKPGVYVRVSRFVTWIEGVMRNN
Chain of plasmin (P00747 97-580 partner limits assumed, species assumed): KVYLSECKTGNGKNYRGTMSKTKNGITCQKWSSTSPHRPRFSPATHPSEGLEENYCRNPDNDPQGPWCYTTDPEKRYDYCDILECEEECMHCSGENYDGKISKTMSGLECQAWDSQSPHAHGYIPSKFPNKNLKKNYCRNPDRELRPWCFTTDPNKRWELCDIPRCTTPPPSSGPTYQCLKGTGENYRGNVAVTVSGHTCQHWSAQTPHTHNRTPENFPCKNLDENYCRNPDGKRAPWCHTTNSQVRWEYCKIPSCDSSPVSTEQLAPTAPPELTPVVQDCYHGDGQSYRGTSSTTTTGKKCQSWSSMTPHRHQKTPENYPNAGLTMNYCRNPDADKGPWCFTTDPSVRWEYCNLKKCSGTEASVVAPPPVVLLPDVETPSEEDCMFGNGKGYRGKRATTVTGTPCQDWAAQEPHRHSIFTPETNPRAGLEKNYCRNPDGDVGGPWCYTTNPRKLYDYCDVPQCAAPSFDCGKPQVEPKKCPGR

Cl.N=C(N)c1ccc2cc(OC(=O)c3ccc(CNC(=O)CC(=O)O)o3)ccc2c1 [Example 17, 6-Amidino-2-naphthyl 5-carboxyacetylaminomethylfuran-2-carboxylate hydrochloride]
IC50 [1]: 470 nM
IC50 [2]: 43 nM
IC50 [3]: 1700 nM
IC50 [4]: 53 nM
IC50 [5]: 1100 nM
IC50 [6]: 1900 nM
Percentage inhibition (arthritis score) [7]: 75.1%
Protein concentration in urine [8]: 2.0 ± 2.0 mg/mL
